According to patent US11209420B2, “Cancer diagnostics, therapeutics, and drug discovery associated with macropinocytosis” (New York University, priority 2011, dated 2021):

Tests used:
T24 cells [1] = test: TMR-dextran labeling of macropinosomes; format: cell-based; conditions: T24, oncogenic H-Ras
Experimental: (§1) It was postulated that cancer cells harboring oncogenic Ras mutations would display higher levels of macropinocytosis compared to cancer cells having a non-mutant Ras. For pancreatic cancer cells, macropinocytosis was analyzed in MIA-Paca-2 cells, which are homozygous for the oncogenic K-Ras^G12C allele (Lopez-Crapez et al., “Rapid and Large-Scale Method to Detect K-Ras Gene Mutations in Tumor Samples,” Clin. Chem. 43(6 Pt 1):936-42 (1997) and Pretlow et al., “K-Ras Mutations in Putative Preneoplastic Lesions in Human Colon,” J. Natl. Cancer Inst. 85(24):2004-7 (1993), which are hereby incorporated by reference in their entirety) and BxPc-3 cells that only express wild-type K-Ras (Aoki et al., “Liposome-Mediated in vivo Gene Transfer of Antisense K-Ras Construct Inhibits Pancreatic Tumor Dissemination in the Murine Peritoneal Cavity,” Cancer Res. 55(17):3810-6 (1995), which is hereby incorporated by reference in its entirety). As a bladder model, uptake in T24 and 5637 cells was analyzed. T24 cells are homozygous for the oncogenic H-Ras^V12C allele and 5637 cells only express wild-type H-Ras. […]

MIA-Paca-2 cells [2] = test: TMR-dextran labeling of macropinosomes; format: cell-based, human; conditions: MIA-Paca-2, oncogenic K-Ras^G12C
Experimental: as §1

[3] = system: oncogenic Ras^V12-expressing HeLa cells; test: Survival under glutamine starvation with extracellular albumin; format: cell-based, human; conditions: glutamine-free media, low BSA or 2% BSA
Experimental: If albumin internalization via Ras-stimulated macropinocytosis serves to augment the glutamine supply, then this process should confer a survival and growth advantage under conditions where free glutamine is limiting. To test this prediction, the survival of oncogenic Ras^V12-expressing HeLa cells was tested. […] It was hypothesized that this was due to albumin-derived amino acids that were augmenting the intracellular glutamine supply. It was determined that Ras^V12-survival was enhanced at higher concentrations of extracellular albumin (up to 2%; FIG. 13) and that this survival enhancement was suppressed by EIPA, a macropinocytosis inhibitor (FIGS. 14A-14B).

[4] = system: K-Ras^V12-transformed NIH3T3 cells; test: High-throughput macropinocytosis assay, amended protocol; format: cell-based, murine; conditions: high-throughput quantification
Description: To explore the flexibility of the high-throughput compatible macropinocytosis assay, the HeLa-based Spot Detector BioApplication parameters were amended to quantify macropinocytosis in K-Ras^V12-expressing NIH3T3 cells. To do this, object identification parameters were altered to accommodate larger nuclei and the spot identification target region was adjusted accordingly. Untransformed NIH3T3 cells display low levels of macropinocytosis, compared to K-Ras^V12-transformed cells. Using this amended protocol, it was possible to quantify fluid-phase uptake in these cells and determine that K-Ras^V12-expressing cells have a 3-4 fold increase in macropinocytosis (FIGS. 2A-2B). To examine the effects of macropinocytosis inhibitors, K-Ras^V12-transformed NIH3T3 cells were treated with increasing concentrations of LY294002 or EIPA.

macropinocytosis = conditions: cited from earlier work
[5] = system: oncogenic Ras-transformed cells; test: Proliferation in low glutamine with physiological albumin; format: cell-based; conditions: 0.2 mM glutamine, rescued by increased glutamine or α-ketoglutarate
MIA-Paca-2 cells [6] = test: FITC-BSA internalization; format: cell-based, human
Experimental: (§2) When added to the growth medium, fluorescently-labeled bovine serum albumin (FITC-BSA) was incorporated into vesicular compartments in oncogenic Ras^V12-expressing HeLa cells (FIG. 6A), MIA-Paca-2, and T24 cells. […] Quantification of FITC-BSA uptake was performed utilizing an amended form of the high-throughput protocol described herein (FIG. 6B). Using colocalization experiments, it was observed that FITC-BSA is internalized with a macropinocytosis marker, dextran (FIG. 7A-7C). To be utilized as a nutrient source, the protein contents of Ras-stimulated macropinosomes must be delivered to a degradative compartment, such as the lysosome. The fate of the macropinosomes was followed via pulse chase experiments and their fusion with lysosomes was monitored by co-staining with lysosomal markers (i.e. Lysotracker). Cells were pulsed with TMR-dextran and incubated with TMR-dextran-free media for varying intervals. At the end of the incubation period, cells were stained with a lysosomal marker and visualized by fluorescent microscopy.

[7] = system: oncogenic Ras^V12-expressing HeLa cells; test: FITC-BSA internalization; format: cell-based, human
Experimental: as §2

[8] = system: HeLa cells expressing HA-H-Ras^V12; test: High-throughput macropinocytosis assay (TMR-dextran uptake, Arrayscan spot detection); format: cell-based, human; conditions: 30 min pre-incubation in serum-free media, then TMR-dextran 30 min; dose-response
Description: To analyze and quantify Ras-stimulated macropinocytosis, a high content screening (HCS)-compatible platform designed for rapid spot analysis was desired. One such platform is the Arrayscan HCS Reader (Cellomics) in conjunction with the Spot Detector BioApplication (Cellomics), which is designed to provide fluorescent- and image-based generic spot analysis for multiple biological applications. As a model cell-based system, a HeLa Tet-Off (HTO) cell line (Clontech) stably transfected with a tetracycline-repressible transgene encoding an oncogenic form of hemagglutinin (HA)-tagged H-Ras (H-Ras^V12) was used. In brief, 2000 cells per well were plated in 384-well plate format in a total volume of 50 μL. To induce expression of H-Ras^V12, cells were plated in media lacking tetracycline, while control cells were plated in 50 ng/mL tetracycline. […] Macropinosomes were analyzed on a cell-to-cell basis using multichannel analysis on the Arrayscan HCS Reader (FIG. 21A). […] A circular spot identification target region (or mask) was then applied for each object on Channel 2, and spots were detected based on their fluorescent intensity, size, and shape. […] To quantify this, the output feature selected for Channel 2 was Spot Count Per Object, which is effectively a measure of total number amount of fluorescent extracellular fluid internalized per cell in a given incubation time. […]

[9] = system: NIH 3T3 [K-Ras^G12V] cells; test: Intracellular glutamate and α-ketoglutarate levels after albumin supplementation; format: cell-based, murine; conditions: complete medium + 2% albumin, 24 hours
Experimental: Glutamine is a major nutrient for many proliferating cells and is rapidly metabolized to glutamate, then α-ketoglutarate to enter central carbon metabolism. To test whether the favorable effects of albumin supplementation on cell growth were related to glutamine metabolism, the intracellular concentrations of glutamate and α-ketoglutarate in cells grown either in the absence or presence of albumin was measured. NIH 3T3 [K-Ras^G12V] cells were cultured for 24 hours in complete media (CM) supplemented to physiological concentrations of albumin (2 g/100 mL, 2%). As a control, NIH 3T3 [K-Ras^G12V] cells were also cultured in CM alone, which contains minimal levels of albumin (˜0.2%). Cells were lysed and metabolite levels were determined from deproteinized cell lysates. The addition of albumin to the media led to significant increases in intracellular concentrations of both glutamate and α-ketoglutarate (FIG. 20A).

T24 cells [10] = test: FITC-BSA internalization; format: cell-based
Experimental: as §2

[11] = cited from earlier work

| SMILES | TMR-dextran labeling (macropinocytosis) (T24 cells [1]) | TMR-dextran labeling (macropinocytosis) (MIA-Paca-2 cells [2]) | survival enhancement by extracellular albumin [3] | effect on macropinocytosis with increasing concentrations [4] | concentrations at which it exerts its effects on macropinocytosis (macropinocytosis) | effect on proliferation [5] | FITC-BSA internalization (MIA-Paca-2 cells [6]) | FITC-BSA internalization [7] | concentration at which maximal inhibition of macropinocytosis occurs [8] | albumin-dependent increase in intracellular α-ketoglutarate ([9]; 25 mM EIPA) | albumin-dependent increase in intracellular glutamate ([9]; EIPA) | FITC-BSA internalization (T24 cells [10]) | solubility in cell culture media [11] |
| --- | --- | --- | --- | --- | --- | --- | --- | --- | --- | --- | --- | --- | --- |
| CCN(c1nc(N)c(C(=O)N=C(N)N)nc1Cl)C(C)C [EIPA, 5-N-ethyl-N-isoproamiloride] | inhibited | inhibited | suppressed | dose-response relationship | 50 to 100 µM | anti-proliferative response | inhibited | inhibited | 100 µM | blocked | blocked | inhibited | soluble in cell culture media |
| O=c1cc(N2CCOCC2)oc2c(-c3ccccc3)cccc12 [LY294002, 2-(4-morpholinyl)-8-phenyl-4H-1-benzopyran-4] | – | – | – | – | – | – | – | – | 100 µM | – | – | – | – |
| N=C(N)NC(=O)c1nc(Cl)c(N)nc1N [amiloride] | – | – | – | – | 1000 to 5000 µM | – | – | – | – | – | – | – | – |
